One may read the IC50 as the concentration needed to halve the response being measured.

Each structure is given as a SMILES string. Counter-ions that a name gives are not always drawn.

The first test has as its target T1, IRAK4 (Homo sapiens, UniProt Q9NWZ3).
T1 sequence (Q9NWZ3 1-460): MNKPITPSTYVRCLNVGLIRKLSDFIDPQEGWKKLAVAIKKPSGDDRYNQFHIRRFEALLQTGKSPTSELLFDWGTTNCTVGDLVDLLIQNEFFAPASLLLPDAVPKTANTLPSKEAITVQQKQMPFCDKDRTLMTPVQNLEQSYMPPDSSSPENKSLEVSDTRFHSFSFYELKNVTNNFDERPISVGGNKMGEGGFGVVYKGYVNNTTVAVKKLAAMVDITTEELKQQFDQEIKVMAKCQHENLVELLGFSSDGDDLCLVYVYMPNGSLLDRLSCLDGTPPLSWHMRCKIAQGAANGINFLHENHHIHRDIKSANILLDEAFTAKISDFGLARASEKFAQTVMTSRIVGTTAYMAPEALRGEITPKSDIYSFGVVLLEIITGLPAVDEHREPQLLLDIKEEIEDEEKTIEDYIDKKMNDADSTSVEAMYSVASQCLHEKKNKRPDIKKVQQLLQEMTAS
Kind of test: biochemical.
Settings: not given
For the molecule `Cc1cnc2c(NC(=O)c3cn4cc([C@]56CO[C@H](CCO5)C6)nc4cc3OC(C)C)cnn2c1` (single isomer, unassigned) [Example 646], the IC50 was 0.0008 µM.

`CCOc1nc(C(=O)Nc2cccc(C(F)F)n2)cn2cc([C@]34CC[C@](C)(C3)OC4)nc12` (single isomer, unassigned) [Example 600] came in with an IC50 of 0.0012 µM.

In the case of `COc1ncccc1NC(=O)c1cn2cc([C@@]34CC[C@@](C)(C3)OC4)nc2c(OC)n1` (single isomer, unassigned) [Example 587], the IC50 was 0.0032 µM.

`CC12CC(c3cn4cc(C(=O)Nc5ccn(CC6CC6)n5)c(OC5CCC5)cc4n3)(CO1)C2` [Example 525, 7-Cyclobutoxy-N-(1-(cyclopropylmethyl)-1H-pyrazol-3-yl)-2-(1-methyl-2-oxabicyclo[2.1.1]hexan-4-yl)imidazo[1,2-a]pyridine-6-carboxamide] showed an IC50 of 0.0185 µM.

`O=C(Nc1cccc(C(F)F)n1)c1cn2cc(C3CC3)nc2cc1OC1CCCC1` [Example 467, 7-(Cyclopentyloxy)-2-cyclopropyl-N-(6-(difluoromethyl)pyridin-2-yl)imidazo[1,2-a]pyridine-6-carboxamide] had an IC50 of 0.001 µM.

`CC(C)Oc1nc2nc(C34COC(C)(C3)C4)cn2cc1C(=O)Nc1cccc(-c2cnn(C)c2)n1` [Example 413, 7-Isopropoxy-N-(6-(1-methyl-1H-pyrazol-4-yl)pyridin-2-yl)-2-(1-methyl-2-oxabicyclo[2.1.1]hexan-4-yl)imidazo[1,2-a]pyrimidine-6-carboxamide] returned an IC50 of 0.0001 µM.

In turn, `O=C(Nc1cccn(C(F)F)c1=O)c1cn2cc(C3CC3)nc2cc1OC1CCCC1` [Example 458, 7-(Cyclopentyloxy)-2-cyclopropyl-N-(1-(difluoromethyl)-2-oxo-1,2-dihydropyridin-3-yl)imidazo[1,2-a]pyridine-6-carboxamide] showed an IC50 of 0.0019 µM.

In turn, `CC(C)Oc1cc2nc([C@@]34CC[C@@](C)(C3)OC4)cn2cc1C(=O)Nc1cccn(C)c1=O` (single isomer, unassigned) [Example 620] came in with an IC50 of 0.0006 µM.

Regarding `CC(C)Oc1cc2nc(C34CCC(C)(C3)OC4)cn2cc1C(=O)Nc1ccccn1` (centres unmarked) [Example 518, 7-Isopropoxy-2-(1-methyl-2-oxabicyclo[2.2.1]heptan-4-yl)-N-(pyridin-2-yl)imidazo[1,2-a]pyridine-6-carboxamide], 0.004 µM corresponded to half-maximal inhibition (IC50).

In turn, `COc1cccc(NC(=O)c2cn3cc(C4CCOCC4)nc3cc2OC(C)C)n1` [Example 93, 7-isopropoxy-N-(6-methoxypyridin-2-yl)-2-(tetrahydro-2H-pyran-4-yl)imidazo[1,2-a]pyridine-6-carboxamide] yielded a concentration for half-maximal inhibition (IC50) of 0.0002 µM.

`CC(C)Oc1nc(C(=O)Nc2cccc(C(F)F)n2)cn2cc([C@]34CC[C@](C)(C3)OC4)nc12` (single isomer, unassigned) [Example 589] had an IC50 of 0.0024 µM.

`CC12CC(c3cn4cc(C(=O)Nc5cccc(C(F)F)n5)nc(OC5CCC5)c4n3)(CO1)C2` [Example 345, 8-Cyclobutoxy-N-(6-(difluoromethyl)pyridin-2-yl)-2-(1-methyl-2-oxabicyclo[2.1.1]hexan-4-yl)imidazo[1,2-a]pyrazine-6-carboxamide] came in with an IC50 of 0.0022 µM.

For `COc1cc2nc(C3CCOCC3)cn2cc1C(=O)Nc1cscc1Cl` [Example 111], the IC50 is 0.0198 µM.

Take `COc1ncccc1NC(=O)c1cn2cc(C34CCC(C3)OC4)nc2cc1OC(C)C` (centres unmarked) [Example 249]: the IC50 amounted to 0.0007 µM.

Molecule `CCOc1nc(C(=O)Nc2cccn(C)c2=O)cn2cc(C34COC(C)(C3)C4)nc12` [Example 500, 8-Ethoxy-N-(1-methyl-2-oxo-1,2-dihydropyridin-3-yl)-2-(1-methyl-2-oxabicyclo[2.1.1]hexan-4-yl)imidazo[1,2-a]pyrazine-6-carboxamide] came in with an IC50 of 0.0021 µM.

Consider `CC(C)Oc1cc2nc(C34COC(C)(C3)C4)cn2cc1C(=O)Nc1ccccn1` [Example 219], for which the half-maximal inhibitory concentration (IC50) came out at 0.0069 µM.

In turn, `CCOc1cc2nc(C(F)F)cn2cc1C(=O)Nc1cccc(C(F)F)n1` [Example 95, 2-(Difluoromethyl)-N-(6-(difluoromethyl)pyridin-2-yl)-7-ethoxyimidazo[1,2-a]pyridine-6-carboxamide] yielded an IC50 of 0.0005 µM.

Molecule `COc1cc2nc(C3CCOCC3)cn2cc1C(=O)Nc1cccnc1OC` [Example 193] had a half-maximal inhibitory concentration (IC50) of 0.0027 µM.

Regarding `Cn1ccc(NC(=O)c2cn3cc(C45CCC(C)(CC4)OC5)nc3cc2OC2CCC2)n1` [Example 570, 7-Cyclobutoxy-N-(1-methyl-1H-pyrazol-3-yl)-2-(1-methyl-2-oxabicyclo[2.2.2]octan-4-yl)imidazo[1,2-a]pyridine-6-carboxamide], the IC50 turned out to be 0.0004 µM.

`CC(C)Oc1cc2nc(C34CCC(C)(C3)OC4)cn2cc1C(=O)Nc1ccn(C(F)(F)F)n1` (centres unmarked) [Example 506, 7-Isopropoxy-2-(1-methyl-2-oxabicyclo[2.2.1]heptan-4-yl)-N-(1-(trifluoromethyl)-1H-pyrazol-3-yl)imidazo[1,2-a]pyridine-6-carboxamide] yielded a 50% inhibitory concentration (IC50) of 0.0038 µM.

Take `COCCCc1cn2cc(C(=O)Nc3cccc(OC)n3)c(OC(C)C)cc2n1` [Example 103, 7-Isopropoxy-2-(3-methoxypropyl)-N-(6-methoxypyridin-2-yl)imidazo[1,2-a]pyridine-6-carboxamide]: half-maximal inhibition (IC50) was put at 0.0032 µM.

As for `CC(C)Oc1cc2nc([C@]34CC[C@H](C3)OC4)cn2cc1C(=O)Nc1cccc(C(F)F)n1` (single isomer, unassigned) [Example 591], inhibition was half-maximal at 0.0001 µM (IC50).

`Cn1ccc(NC(=O)c2cn3cc(C45COC(C)(C4)C5)nc3nc2OCC2CC2)n1` [Example 370, 7-(Cyclopropylmethoxy)-N-(1-methyl-1H-pyrazol-3-yl)-2-(1-methyl-2-oxabicyclo[2.1.1]hexan-4-yl)imidazo[1,2-a]pyrimidine-6-carboxamide] gave an IC50 of 0.0016 µM.

With `CC[C@@H](C)Oc1cc2nc(C34COC(C)(C3)C4)cn2cc1C(=O)Nc1cnn2cc(C)cnc12` [Example 560], it took 0.0012 µM to reach half-maximal inhibition (IC50).

`COc1nc(C(=O)Nc2ccn(C(F)F)n2)cn2cc(C3CCOCC3)nc12` [Example 87] yielded a half-maximal inhibitory concentration (IC50) of 0.0329 µM.

Staying with this test, now noted: IRAK4 Biochemical Assay (1 mM ATP, 2 h) IC50 (μM), 1 mM ATP, 2 h, 100 pM IRAK4.
For `CC(C)Oc1nc2nc(C34COC(C)(C3)C4)cn2cc1C(=O)Nc1cccc(N(C)C)n1` [Example 357, N-(6-(dimethylamino)pyridin-2-yl)-7-isopropoxy-2-(1-methyl-2-oxabicyclo[2.1.1]hexan-4-yl)imidazo[1,2-a]pyrimidine-6-carboxamide trifluoroacetate], the 50% inhibitory concentration (IC50) amounted to 0.0003 µM.

The molecule `COc1ncccc1NC(=O)c1cn2cc(C34COC(C)(C3)C4)nc2nc1OC(C)C` [Example 305, 7-Isopropoxy-N-(2-methoxypyridin-3-yl)-2-(1-methyl-2-oxabicyclo[2.1.1]hexan-4-yl)imidazo[1,2-a]pyrimidine-6-carboxamide trifluoroacetate] gave an IC50 of 0.0005 µM.

Regarding `CC(C)Oc1cc2nc(C34CCC(C)(CC3)OC4)cn2cc1C(=O)Nc1ccn(C)n1` [Example 571, 7-Isopropoxy-N-(1-methyl-1H-pyrazol-3-yl)-2-(1-methyl-2-oxabicyclo[2.2.2]octan-4-yl)imidazo[1,2-a]pyridine-6-carboxamide], 0.0017 µM corresponded to half-maximal inhibition (IC50).

As to `COc1nc(C(=O)Nc2ccccn2)cn2cc(C3CCOCC3)nc12` [Example 78], half-maximal inhibition (IC50) required 0.0475 µM.

The values above are taken from patent US20230087118A1, “IMIDAZO[1,2-a][sequence] DERIVATIVES AND THEIR USE IN THE TREATMENT OF DISEASE” (priority 2019, published 2023).
